Reference: EP0013784B1, “C-Substituted naphthalenemonosulfonic ureides, process for their preparation and pharmaceutical compositions containing them” (AMERICAN CYANAMID COMPANY, priority 1979, dated 1980)
Values joined by “and” are separate entries in the source; they are usually repeats but may differ in a detail not shown here. Identical values can stand only once. Counter-ions that a name gives are not always drawn. Like-named read-outs stand apart in the source and are kept apart here.

Assays:
[1] = target: T1, human skin fibroblast collagenase (Homo sapiens, UniProt P03956); test: Collagenase Assay, Test Code 006 (degradation of 14C-labeled native collagen fibrils); type: biochemical; conditions: test conc.: 30 μg./ml.
T1 construct: endogenous in cells
T1 sequence (P03956 100-469): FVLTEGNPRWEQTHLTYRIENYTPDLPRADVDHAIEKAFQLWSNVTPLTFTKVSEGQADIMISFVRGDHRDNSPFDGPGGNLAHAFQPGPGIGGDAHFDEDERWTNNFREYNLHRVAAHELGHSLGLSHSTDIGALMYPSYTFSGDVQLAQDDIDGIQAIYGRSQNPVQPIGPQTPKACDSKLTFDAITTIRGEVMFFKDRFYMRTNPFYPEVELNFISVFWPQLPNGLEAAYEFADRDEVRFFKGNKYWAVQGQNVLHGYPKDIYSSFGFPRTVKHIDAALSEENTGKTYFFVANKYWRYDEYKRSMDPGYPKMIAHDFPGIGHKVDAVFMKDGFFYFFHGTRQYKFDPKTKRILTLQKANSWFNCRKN
Method: (§1) An active inhibitor would inhibit the degradation of the collagen fibril; (iii) Leukocyte Neutral Proteases Inhibitor Assay - This test measures the ability of neutral proteases derived from human leukocytes to degrade radiolabeled proteoglycans entrapped in polyacrylamide beads.
Collagenase assays were performed by a modification of the method of Harper, et al., Biochem.,-10, 3035 (1971). In a typical assay (total volume of 0.45 ml.), 100 pI. of the activated enzyme was added to the ^14C-labeled collagen fibrils (250 µl.) followed by 100 pl. of 50 mM cacodylate, pH 7.4, containing 5 mM calcium chloride. After incubation at 37°C. for 16 hours, the tubes were centrifuged in a Beckman microfuge for five minutes at full speed. An aliquot (200 pl.) of the supernatant, representing collagenase digestion products of the fibril, was assayed for radioactivity. […] Appropriate blanks and trypsin controls were run in parallel.
The activities are expressed as % inhibition (lowering) of collagenase activity, i.e. based on the 0% value for the enzyme control.

[2] = test system: fibroblast collagenase and leukocyte neutral protease; test: Enzymatic Degradation of Collagen of Human Gingiva (hydroxyproline content of residual tissue); type: biochemical; conditions: 36 hours at 37°C., enzymes alone 102.3
Method: The test compounds are able to inhibit the degradation of collagen of gingival tissue. Dried pieces of human gingiva were incubated at 37°C. for 36 hours with fibroblast collagenase and leukocyte neutral protease in the presence of test compound (30 and 50 µg./ml.). Antibiotics were present to prevent bacterial growth. After incubation, the residual tissue was hydrolyzed in 6N hydrochloric acid and the hydroxy-proline content (collagen) was determined. When collagenase and neutral protease were added to human gingiva, approximately 100 µg of collagen/mg. dry tissue was digested. If the test compound was present, degradation of gingival collagen was inhibited.

[3] = test system: Gingival Crevicular Fluid Collagenase; test: Crevicular Fluid Assay (gingival crevicular fluid collagenase degrading 14C-collagen fibrils); type: biochemical, human; conditions: Diseased crevicular fluid + 30 mcg./ml. of compound; about 90 hours at 37°C.; diseased fluid alone 66 ± 9; p<0.0005
Description: as §1
Since studies by Golub, et al., Dental Res., 55, 1049 (1976) have shown that the crevicular collagenase plays a major role in the degradation of collagen in periodontal tissue, the effect of test compounds on collagen degradation by this system was examined. A volunteer with diagnosed periodontal disease was used. […] After one minute, the filter paper strip was removed and the volume of the gingival crevicular fluid was measured with the aid of the Periotron (Harco Electronics, Ltd., Winnipeg, Canada). The volume of the fluid gathered from the crevice by the filter paper strip is translated by a unique transducer onto a digital readout screen. […] After reading on the meter, 1 µl. of trypsin (1.5 µg./ml.) was added to the filter paper (to activate any latent collagenase present) and after five minutes at room temperature 1 pI. of aprotonin was added. […] The tubes were centrifuged as described above and a 200 µl. aliquot of the clear supernatant was assayed for radioactivity.

[4] = test system: neutral proteases derived from human leukocytes; test: Leukocyte Neutral Proteases Inhibitor Assay (3H/35S labeled proteoglycans entrapped in polyacrylamide beads); type: biochemical; conditions: for Percent Inhibition of Neutral Protease Activity ^3H: 3H label; for Percent Inhibition of Neutral Protease Activity ^35S: 35S label
Method: as §1
This assay system contained (total volume of 1 ml.) 60 mM Tris-CI, pH 7.4; 2.5 mM calcium chloride; 2.5 mM magnesium chloride; 2 mg. (dry weight) of polyacrylamide beads entrapped with labeled proteoglycans, and an aliquot of the leukocyte neutral protease preparation. The reaction mixture was incubated at 37°C. for 30 minutes in a shaking water bath. The reaction was terminated by the addition of 0.2 mi. of 5% SDS in 5% HCI (v/v). After five minutes at room temperature the mixture was centrifuged and the clear supernatant (0.6 ml.) was assayed for radioactivity. To determine the effect of the test compounds on degradation of proteoglycans by neutral proteases, various concentrations of the compounds were added to the reaction mixture. Appropriate blanks were included.

[5] = test system: collagenase; conditions: as reported in Thromb. Res. 1977, 10(4), 605-11; cited from earlier work
[6] = compound in distilled water, 16 hours at 37°C., repeat determinations
[7] = compound in distilled water, 16 hours at 37°C., repeat determinations, read-out: % Inhibition of Collagenase
[8] = DMA = Dimethylacetamide, read-out: % Inhibition of Collagenase (DMA)

O=C(Nc1cccc(C(=O)Nc2ccc(S(=O)(=O)O)c3cccc(O)c23)c1)Nc1cccc(C(=O)Nc2ccc(S(=O)(=O)O)c3cccc(O)c23)c1 [4,4'-[Ureylenebis(m-phenylenecarbonylimino)]bis-5-hydroxy-1-2-naphthalen,3sulfonic acid, disodium salt]
% Inhibition of Collagenase ([1]; compound in distilled water, 16 hours at 37°C., repeat determinations, disodium salt): 84% and 69% and 60% and 55%

O=C(Nc1cccc(C(=O)Nc2ccc3cc(S(=O)(=O)O)cc(O)c3c2)c1)Nc1cccc(C(=O)Nc2ccc3cc(S(=O)(=O)O)cc(O)c3c2)c1 [6,6'-[Ureylenebis(3,1-phenyl-enecarbonylimino)]bis[4-hydroxy] [6,6'-[Ureylenebis(m-phenylenecarbonylimino)]bis[4-hydroxy-2-naphthalenesulfonic acid]disodium salt]
mcg. of Collagen degraded per mg. of dry gingiva ([2]; neutral proteases plus 30 mcg./ml. of compound): 60.4 mcg. per mg. of dry gingiva | mcg. of Collagen degraded per mg. of dry gingiva ([2]; neutral proteases plus 50 mcg./ml. of compound): 27.4 mcg. per mg. of dry gingiva | cpm Collagen Degraded/Unit Periotron Reading [3]: 16 ± 6 cpm | Percent Inhibition of Neutral Protease Activity ^3H ([4]; 0.5 mcg./ml.): 0% | Percent Inhibition of Neutral Protease Activity ^35S ([4]; 0.5 mcg./ml.): 0% | Percent Inhibition of Neutral Protease Activity ^3H ([4]; 1.0 mcg./ml.): 17% | Percent Inhibition of Neutral Protease Activity ^35S ([4]; 1.0 mcg./ml.): 31% | Percent Inhibition of Neutral Protease Activity ^3H ([4]; 2.0 mcg./ml.): 21% | Percent Inhibition of Neutral Protease Activity ^35S ([4]; 2.0 mcg./ml.): 37% | Percent Inhibition of Neutral Protease Activity ^3H ([4]; 5.0 mcg./ml.): 47% | Percent Inhibition of Neutral Protease Activity ^35S ([4]; 5.0 mcg./ml.): 74% | Percent Inhibition of Neutral Protease Activity ^3H ([4]; 10.0 mcg./ml.): 63% | Percent Inhibition of Neutral Protease Activity ^35S ([4]; 10.0 mcg./ml.): 91% | % Inhibition of Collagenase [1, 6]: 92% and 69%

Cc1ccc(C(=O)Nc2ccc3cc(S(=O)(=O)O)cc(O)c3c2)cc1NC(=O)Nc1cc(C(=O)Nc2ccc3cc(S(=O)(=O)O)cc(O)c3c2)ccc1C [6,6'-[Ureylenebis(4-methyl-3,1-phenylene)carbonyliminolbis[4-hydroxy-2-naphthalenesulfonic acid]-disodium salt]
inhibition at 30 µg/mL [1, 7]: 73%

O=C(Nc1cccc(C(=O)Nc2ccc3cc(S(=O)(=O)O)cc(O)c3c2)c1)Nc1cccc(C(=O)Nc2ccc3cc(S(=O)(=O)O)cc(O)c3c2)c1 [6,6'-[Ureylenebis(m-phenylenecarbonylimino)]bis[4-hydroxy-2-naphthalenesulfonic acid]disodium salt]
inhibition at 30 µg/mL [1, 8]: 81%

O=C(Nc1ccc(C(=O)Nc2ccc3cc(S(=O)(=O)O)cc(O)c3c2)cc1)Nc1ccc(C(=O)Nc2ccc3cc(S(=O)(=O)O)cc(O)c3c2)cc1 [6,6'-[Ureylenebis(p-phenylenecarbonylimino)]bis[4-hydroxy-2-naphthalenesulfonic acid acid], disodium salt]
inhibition at 30 µg/mL [1, 8]: 96% | inhibition at 30 µg/mL [1, 7]: 86%

O=C(Nc1ccc(C(=O)Nc2ccc3cc(S(=O)(=O)O)cc(O)c3c2)cc1)Nc1ccc(C(=O)Nc2ccc3cc(S(=O)(=O)O)cc(O)c3c2)cc1 [6,6-'Ureylenebis(p-phenylenecarbonylimino)bis[4-hydroxy-2-naphthalenesulfonic acid]-tetrasodium salt]
% Inhibition of Collagenase [1, 6]: 92%

Cc1ccc(C(=O)Nc2ccc(S(=O)(=O)O)c3cc(S(=O)(=O)O)cc(S(=O)(=O)O)c23)cc1NC(=O)c1cccc(NC(=O)Nc2cccc(C(=O)Nc3cc(C(=O)Nc4ccc(S(=O)(=O)O)c5cc(S(=O)(=O)O)cc(S(=O)(=O)O)c45)ccc3C)c2)c1 [Suramin]
inhibition of the activity of collagenase [5]: not inhibiting the action of collagenase

Cc1cc(-c2ccc(/N=N/c3c(S(=O)(=O)O)cc4cc(S(=O)(=O)O)cc(N)c4c3O)c(C)c2)ccc1/N=N/c1c(S(=O)(=O)O)cc2cc(S(=O)(=O)O)cc(N)c2c1O [trypan blue]
inhibition of the activity of collagenase [5]: inhibiting the activity of collagenase, or a proteinase contaminant in the collagenase preparation
